Measured values from patent US8513484B2, “Fish cancer model” (Temasek Life Sciences Laboratory Limited, priority 2005, dated 2013).

Experiments:
[1] = system: EGFP-positive cells of embryos injected with EGFP-zK-rasB(V12) construct; assay: Drug tests on zebrafish embryos injected with EGFP-zK-rasB(V12) construct (neoplastic transformation of EGFP-positive cells); type: in vivo; conditions: for Effects: preliminary screen; for specific effect on the EGFP-positive cells: 1 μg/ml; for effect on the transformed cells: 3 μg/ml
Method: 5-10 pg of plasmid DNA were injected into zebrafish embryos at the 1-2-cell stage. The actual concentration of DNA was empirically adjusted to produce 50% embryo survival rate.
A SMZ1500 Stereoscopic Zoom Microscope (Nikon) equipped with the epi-fluorescence attachment and DXM1200F digital camera (Nikon) with original software was used for image analysis.

[2] = system: developing embryo; assay: Toxicity of drugs for the developing embryo; type: in vivo, zebrafish
Method: Drugs from BIOMOL® ICCB Known Bioactives Library Cat #2840 were used for drug tests. Drugs were diluted in standard fish water from the 5-mg/ml DMSO stock solutions. The injected embryos were sorted at 8 hours post fertilization (hpf) and the normally developing were selected for drug treatment. Ten to fifteen embryos per well were plated into 24-well microtiter plate and overlayed with 1.5 ml drug solution at 10 hpf. Embryos were incubated in the dark at 28° C. The results were observed every day until 5 days post fertilization (dpf).
To evaluate feasibility of the model for drug discovery, a mini-screening was performed using selected compounds from BIOMOL® ICCB Known Bioactives Library. The embryos injected with EGFP-zK-rasB(V12) construct were treated with various drugs in 24-well microtiter plates. The drugs were administered into the standard fish water starting at 10 hpf. Concentration of drugs was proposed based on data from a preliminary screening for developmental toxicity.

[3] = system: E-cadherin-mediated cell adhesion system; conditions: by restoring E-cadherin-mediated cell adhesion system; Nam et al., 2002; cited from earlier work
[4] = 10 μg/ml in fish water from 10 hpf
[5] = 3 μg/ml in fish water from 10 hpf

O=C1Nc2ccc(I)cc2/C1=C/c1cc(Br)c(O)c(Br)c1 [GW-5074]
Effects ([1]; 1 μg/ml in fish water from 10 hpf): Cytotoxic, non-specific effects

CC[C@H](C)[C@@H](CO[C@@H](Cc1ccccc1)C(=O)N[C@@H](CCS(C)(=O)=O)C(=O)OC(C)C)NC[C@@H](N)CS [L-744,832]
Effects [1, 4]: NO

O=c1cc(N2CCOCC2)oc2c(-c3ccccc3)cccc12 [LY294002]
Effects [1, 5]: NO

CC[C@H](C)C(=O)O[C@H]1C[C@@H](C)C=C2C=C[C@H](C)[C@H](CC[C@@H]3C[C@@H](O)CC(=O)O3)[C@H]21 [Lovastatin]
Effects ([1]; 0.003 μg/ml in fish water from 10 hpf): Cytotoxic, non-specific effects

CCCC[C@@H](C)/C=C(C)/C=C(\C)C(=O)NC1=C[C@@](O)(/C=C/C=C/C=C/C(=O)NC2=C(O)CCC2=O)[C@@H]2O[C@@H]2C1=O [Manumycin A]
Effects [1, 5]: NO

COc1cccc(-c2cc(=O)c3ccccc3o2)c1N [PD98059]
concentration at which toxic effects on development become serious ([2]; zebrafish, in vivo): 10 ng/mL
growth of the EGFP-positive cells ([1]; 3 ng/ml): strongly impairs growth
shape and attachment of EGFP-positive cells ([1]; 3 ng/ml, by 72 hpf): smaller, maintain flat shape and remain attached to the embryo
Effects [1, 5]: preserves the epithelial

Cc1ccc(-c2nn(C(C)(C)C)c3ncnc(N)c23)cc1 [PP1]
toxicity for developing embryo ([2]; 1 μg/ml): tolerable
toxicity for developing embryo ([2]; 3 μg/ml): toxic
specific effect on the EGFP-positive cells [1]: considerably reduced
effect on the transformed cells [1]: maintained flat shape while continued to grow
Effects [1, 5]: Keeps cells flat and attached

CC(C)(C)n1nc(-c2ccc(Cl)cc2)c2c(N)ncnc21 [PP2]
toxicity for developing embryo ([2]; 1 μg/ml): tolerable
toxicity for developing embryo ([2]; 3 μg/ml): toxic
specific effect on the EGFP-positive cells [1]: considerably reduced
effect on the transformed cells [1]: maintained flat shape while continued to grow
Effects [1, 5]: Keeps cells flat and attached
metastatic spread of cancer [3]: reduced metastatic spread of cancer

Cc1ccc(NC(=O)c2cccc(N(C)C)c2)cc1NC(=O)c1ccc(O)cc1 [ZM336372]
Effects [1, 4]: NO
